The text below walks through data of ChEMBL document CHEMBL2321810, “QSAR investigation of NaV1.7 active compounds using the SVM/Signature approach and the Bioclipse Modeling platform” (Bioorg Med Chem Lett, 2013).

In the assay the target is Sodium channel protein type 9 subunit alpha (Homo sapiens, UniProt Q15858). Nature of the assay: cell-based.

Each structure is given as a SMILES string.

Chain of Sodium channel protein type 9 subunit alpha (Q15858 whole entry): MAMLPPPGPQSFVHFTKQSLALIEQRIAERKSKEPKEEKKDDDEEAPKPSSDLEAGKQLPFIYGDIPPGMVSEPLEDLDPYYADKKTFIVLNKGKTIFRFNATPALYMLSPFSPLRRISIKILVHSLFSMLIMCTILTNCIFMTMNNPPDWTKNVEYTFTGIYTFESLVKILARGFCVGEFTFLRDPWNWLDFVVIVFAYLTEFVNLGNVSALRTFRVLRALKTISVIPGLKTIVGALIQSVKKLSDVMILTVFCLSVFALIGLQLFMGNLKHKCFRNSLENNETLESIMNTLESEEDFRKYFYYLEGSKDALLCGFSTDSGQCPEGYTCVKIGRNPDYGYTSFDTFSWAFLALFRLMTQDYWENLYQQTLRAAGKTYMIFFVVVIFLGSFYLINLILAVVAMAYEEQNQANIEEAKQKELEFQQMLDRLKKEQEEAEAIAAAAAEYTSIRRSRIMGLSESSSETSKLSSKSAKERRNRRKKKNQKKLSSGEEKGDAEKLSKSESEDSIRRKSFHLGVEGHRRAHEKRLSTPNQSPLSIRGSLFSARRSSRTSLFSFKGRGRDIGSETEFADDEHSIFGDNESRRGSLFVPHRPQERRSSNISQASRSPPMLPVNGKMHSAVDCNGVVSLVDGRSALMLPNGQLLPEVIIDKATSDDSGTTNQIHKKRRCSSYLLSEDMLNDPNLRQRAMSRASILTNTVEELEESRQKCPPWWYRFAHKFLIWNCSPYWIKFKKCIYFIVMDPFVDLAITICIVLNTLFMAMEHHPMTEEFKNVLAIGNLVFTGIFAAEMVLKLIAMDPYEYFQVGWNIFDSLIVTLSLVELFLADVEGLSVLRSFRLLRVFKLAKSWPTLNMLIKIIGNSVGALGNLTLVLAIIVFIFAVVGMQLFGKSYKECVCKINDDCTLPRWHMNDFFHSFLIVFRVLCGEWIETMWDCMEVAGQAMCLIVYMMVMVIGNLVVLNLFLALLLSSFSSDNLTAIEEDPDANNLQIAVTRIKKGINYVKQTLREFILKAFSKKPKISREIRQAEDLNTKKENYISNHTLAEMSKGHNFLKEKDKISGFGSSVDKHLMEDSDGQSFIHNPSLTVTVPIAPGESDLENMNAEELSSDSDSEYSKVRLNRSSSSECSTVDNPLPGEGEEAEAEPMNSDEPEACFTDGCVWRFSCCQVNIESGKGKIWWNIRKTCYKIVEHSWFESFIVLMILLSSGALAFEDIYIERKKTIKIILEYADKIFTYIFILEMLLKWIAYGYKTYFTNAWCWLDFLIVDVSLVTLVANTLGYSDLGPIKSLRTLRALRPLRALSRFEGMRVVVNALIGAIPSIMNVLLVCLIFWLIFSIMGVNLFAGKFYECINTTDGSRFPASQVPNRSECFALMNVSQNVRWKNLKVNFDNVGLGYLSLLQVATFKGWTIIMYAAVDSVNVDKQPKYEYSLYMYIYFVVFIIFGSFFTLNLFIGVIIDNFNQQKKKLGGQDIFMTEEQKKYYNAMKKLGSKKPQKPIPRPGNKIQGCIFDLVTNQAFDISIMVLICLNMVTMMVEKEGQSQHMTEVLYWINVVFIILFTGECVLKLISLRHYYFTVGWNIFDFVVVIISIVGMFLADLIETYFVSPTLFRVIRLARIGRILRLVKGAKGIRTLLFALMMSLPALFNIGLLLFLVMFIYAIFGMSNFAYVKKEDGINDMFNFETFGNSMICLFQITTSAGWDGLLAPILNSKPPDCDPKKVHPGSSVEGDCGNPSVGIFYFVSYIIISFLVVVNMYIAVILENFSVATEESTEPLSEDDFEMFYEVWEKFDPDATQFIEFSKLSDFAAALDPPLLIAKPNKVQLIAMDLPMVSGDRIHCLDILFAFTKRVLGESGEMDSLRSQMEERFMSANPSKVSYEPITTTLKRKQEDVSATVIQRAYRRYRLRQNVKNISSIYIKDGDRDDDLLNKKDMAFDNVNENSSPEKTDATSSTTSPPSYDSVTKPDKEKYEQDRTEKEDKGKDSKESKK

In turn, `Cn1cnc(-c2cc(Cl)ccc2Oc2ccc(S(=O)(=O)Nc3nccs3)cc2C#N)n1` gave a half-maximal inhibitory concentration (IC50) of 300 nM.
The result for `N#Cc1cc(S(=O)(=O)Nc2ncsn2)ccc1Oc1ccccc1-c1ccccc1` reads 4600 nM; that for `CCn1nccc1-c1cc(F)ccc1Oc1ccc(S(=O)(=O)Nc2nccs2)cc1C#N`, 90 nM.
The result for `CN1CCN(c2ccc(Oc3ccc(SNc4nccs4)cc3C#N)cc2)C1=O` reads 1000 nM; that for `N#Cc1cc(S(=O)(=O)Nc2ncns2)ccc1Oc1cccc(Br)c1-c1cn[nH]c1`, 7 nM; that for `N#Cc1cc(S(=O)(=O)Nc2nccs2)ccc1Oc1ccccc1-c1ccno1`, 10000 nM.
In the case of `O=S(=O)(Nc1ncc(Cl)s1)c1cc(Cl)c(Oc2ccc(Cl)cc2C2CNC2)cc1F`, the IC50 is 10 nM.
For `N#Cc1cc(S(=O)(=O)Nc2cnoc2)ccc1Oc1ccccc1-c1ccccc1` the value was 10000 nM; for `Cn1ncnc1-c1cc(Cl)ccc1Oc1ccc(S(=O)(=O)Nc2ncc(F)s2)cc1C#N`, 300 nM.
The result for `CNc1ncc(Oc2ccc(S(=O)(=O)Nc3ncns3)cc2C#N)c(-c2ccc(F)cc2)n1` reads 12500 nM; that for `O=S(=O)(Nc1cscn1)c1cc(F)c(Oc2ccc(Cl)cc2-c2ccnc(N3CCNCC3)c2)cc1F`, 3.7 nM.
`N#Cc1cc(S(=O)(=O)Nc2nccs2)ccc1Oc1ccc(-c2cc(C3CC3)n[nH]2)c(Cl)c1` showed an IC50 of 1000 nM.
For `N#Cc1cc(S(=O)(=O)Nc2nccs2)ccc1Oc1cccc(-n2ccc(C(F)(F)F)n2)c1` the value was 930 nM; for `N#Cc1cc(S(=O)(=O)Nc2nccs2)ccc1Oc1ccc(N2CCCC2=O)cc1`, 1000 nM.
For `N#Cc1cc(S(=O)(=O)Nc2cscn2)ccc1Oc1ccc(F)cc1-c1cnn(CC(F)(F)F)c1` the value was 1000 nM; for `CCn1nc(C(F)(F)F)cc1-c1ccc(Oc2ccc(S(=O)(=O)Nc3ccc(C#N)cn3)cc2C#N)cc1`, 10000 nM.
The molecule `CC(C)(C)NC(=O)c1cnn(-c2ccc(Oc3ccc(S(=O)(=O)Nc4nccs4)cc3C#N)cc2)c1` gave an IC50 of 1000 nM.
With `COC(=O)c1cc(Oc2ccc(S(=O)(=O)Nc3nccs3)cc2C#N)ccc1-n1cc(Cl)cn1`, the IC50 was 1000 nM.
For `Cn1nccc1-c1cc(Cl)ccc1Oc1ccc(S(=O)(=O)Nc2ccon2)cc1C#N` the value was 1500 nM.
The result for `CC(C)(C)OC(=O)N1CCC(c2cc(Cl)ccc2Oc2ccc(S(=O)(=O)Nc3ncns3)cc2C#N)CC1` reads 350 nM; that for `Cc1cc(-c2ccnn2C)ccc1Oc1ccc(S(=O)(=O)Nc2ncc(F)s2)cc1C#N`, 1100 nM.
For `N#Cc1cc(S(=O)(=O)Nc2ncns2)ccc1Oc1ccc(Cl)cc1-c1ccnn1C1CC1` the value was 17 nM; for `NCc1cc(-c2cc(Cl)ccc2Oc2cc(F)c(S(=O)(=O)Nc3ncns3)cc2Cl)ccn1`, 4.9 nM.
As for `N#Cc1cc(S(=O)(=O)Nc2nccs2)ccc1Oc1cnn(-c2ccc(Cl)cc2)c1`, half-maximal inhibition (IC50) was put at 1000 nM.
`N#Cc1cc(S(=O)(=O)Nc2nccs2)ccc1Oc1ccc(-c2ccc(C(F)(F)F)cn2)cc1` had an IC50 of 3300 nM.
For `N#Cc1cc(S(=O)(=O)Nc2ncns2)ccc1Oc1ccccc1Oc1ccccc1C(N)=O` the value was 10000 nM; for `COCc1cnn(-c2ccc(Oc3ccc(S(=O)(=O)Nc4nccs4)cc3C#N)cc2)c1`, 1000 nM.
The result for `CC(C)Oc1cc(-c2cc(F)ccc2Oc2ccc(S(=O)(=O)Nc3nccs3)cc2C#N)n(C)n1` reads 1000 nM.
The result for `NC1=NCN=C1c1cc(Cl)ccc1Oc1cc(F)c(S(=O)(=O)Nc2ccncn2)cc1Cl` reads 21 nM; that for `Cc1cnc(NS(=O)(=O)c2ccc(Oc3ccccc3-c3ccccc3)c(C#N)c2)nc1`, 10000 nM.
`Cc1cc(Oc2ccc(S(=O)(=O)Nc3ncc(Cl)s3)cc2C#N)n(C2CCCCC2)n1` gave a half-maximal inhibitory concentration (IC50) of 10000 nM.
In turn, `CC(C)(C)OC(=O)n1cc(-c2cc(Cl)ccc2Oc2cc(F)c(S(=O)(=O)Nc3nccs3)cc2F)cn1` gave an IC50 of 56 nM.
`Cn1cnnc1-c1cc(Cl)ccc1Oc1ccc(S(=O)(=O)Nc2nccs2)cc1F` showed an IC50 of 1000 nM.
